Reference: US20250367099A1, “UROLITHIN COMBINATIONS” (priority 2024, published 2025)

Key:
C2C12 myotubes = experiment: Fatty acid oxidation / mitochondrial respiration analysis on C2C12 myotubes (Seahorse XF96); assay type: cell-based, Mouse; conditions: UA 50 uM, Astaxanthin 20 uM; for induced mitochondrial respiration / Relative Change (%) Compared to DMSO 0.1%: C2C12 myotubes; for induced mitochondrial respiration: 24 hours treatment, vs DMSO; for % increase in maximal mitochondrial respiration: Table 3: change in maximal mitochondrial respiration vs DMSO, 24 hours; for Relative Change (%) Compared to DMSO 0.1%: Table 4
Protocol: Fatty acid oxidation analysis on C2C12 myotubes was measured with a Seahorse XF96 extracellular flux analyzer. […] were seeded at 8,000 cells/well in an XF96 cell culture microplate. Once cells reached confluence, they were differentiated with DMEM (Gibco, 31966047) supplemented with 2% Horse serum, 1% PenStrep and 1% Hepes for 5 days. Cells were treated with UA 50 uM (Amazentis) and Astaxanthin 20 uM (MedChemExpress, LKT-A7476) for 24 hours in substrate-limited media (Gibco, A1443001) supplemented with 0.5 mM glucose, 1 mM glutamine, 1% Oleic acid and 0.5 mM L-Carnitine. Maximal respiration was monitored by injection of 3 µM FCCP in the cartridge. Prior to the assay, cells were incubated in a Fatty acid oxidation medium (111 mM NaCl, 4.7 mM KCl, 1.25 mM CaCI2, 2 mM MgSO4, 1.2 mM NaH2PO4, 5 mM L-Carnitine, 5 mM Hepes, 2.5 mM Glucose) for 20 min, solution must be adjusted to pH 7.4 at 37° C. Mouse muscle C2C12 myotubes were treated for 24 hours with either Urolithin A alone, Astaxanthin alone or a combination of both compounds. Urolithin A alone induced mitochondrial respiration (+8.5%, Table 4). Astaxanthin alone induced mitochondrial respiration (+3.2% Table.4).

interleukin 6 (IL-6) = experiment: Cytokine mix (CTX)-induced IL-6 release in normal human dermal fibroblasts (ELISA); assay type: cell-based; conditions: Zinc 100 uM; for Relative Change (%) Compared to CTX: Table 5, IL-6, nHDF; for Relative Change (%) Compared to CTX / reduction of CTX-mediated increase of IL-6: CTX 0.025 ng/ml; for Relative Change (%) Compared to CTX / % reduction IL-6: UA 2.5 uM; for % reduction IL-6: Table 6, IL-6 concentration in cell supernatant, CTX vs CTX + treatment; for reduction of CTX-mediated increase of IL-6: nHDF, urolithin A 2.5 uM, 24 h pre-treatment + 24 h co-treatment
Protocol: The protective effects of urolithin A and Zinc against inflammation induced by a cytokines mix (Cytomix, CTX) in human dermal fibroblasts (nHDF cells) were investigated. A dose of 0.025 ng/ml of Cytokines mix was applied to induce inflammation, measured by quantifying the levels of the pro-inflammatory cytokine interleukin 6 (IL-6) in the cell culture supernatant. For the experiment, cells were first pre-treated with either i) urolithin A 2.5 uM, ii) Zinc at 100 uM, iii) a combination of urolithin A 2.5 uM and Zinc 100 uM, iv) or DMSO as control for 24 h. Then cells were co-treated with both CTX and either urolithin A or Zinc alone or in combination, as above. After 24h, IL-6 was measured in the cell supernatant to assess the ability of Urolithin A and Zinc to reduce Cytokines-induced inflammation.
Normal Human dermal fibroblasts (nHDF) purchased from Promocell (ref. C-12302) were seeded at 6000 cells per well in a 96 well plate (Greiner) using a DMEM Glutamax 1 g D-glucose (Gibco, ref 21885108) supplemented with FBS 10% (PanBiotech, ref P30-3033), 1% PenStrep (Biowest) and 1% Hepes (Biowest). All media were sterilized with a 0.45 μm filter unit (VWR). The day after the seeded cells were treated for 24 h with 1) Urolithin A (UA) resuspended in DMSO, Zinc gluconate (MedChemExpress Ref. HY-W145499) or a combination of the two at the indicated doses. Cytokine mix (“cytomix”) was added in addition of the previous treatment for another 24h, cytokines were used equally for a total and final concentration of 0.025 ng/ml (mIFN-g (roche ref.11276905001), TNF-α (Peprotech ref. 300-01A) and IL-b (Proteintech ref. 200-01B)). The medium was collected and an ELISA for Interleukin-6 were performed following the instruction provided by the supplier (Proteintech ref. KE10007). Finally, the absorbance at a wavelength of 450 nm was measured using a microplate plate reader (Fluostar Optima, BMG Labtech). IL-6 data were finally normalized over cell number, calculated with a cell viability assay (Promega, ref. G7571).

Row | Compound | induced mitochondrial respiration (C2C12 myotubes) | % increase in maximal mitochondrial respiration (C2C12 myotubes) | Relative Change (%) Compared to DMSO 0.1% (C2C12 myotubes) [%] | Relative Change (%) Compared to CTX (interleukin 6 (IL-6)) [%] | % reduction IL-6 (interleukin 6 (IL-6)) [%] | reduction of CTX-mediated increase of IL-6 (interleukin 6 (IL-6)) [%]
1 | CC1=C(/C=C/C(C)=C/C=C/C(C)=C/C=C/C=C(C)/C=C/C=C(C)/C=C/C2=C(C)C(=O)[C@@H](O)CC2(C)C)C(C)(C)C[C@H](O)C1=O [Astaxanthin] | +3.2% | +3.3% | 2.6 |  |  | 
2 | O=c1oc2cc(O)ccc2c2ccc(O)cc12 [Urolithin A] | +8.5% | +8.5% | 8.4 | −25.05 | 25 | 25
3 | Zinc gluconate |  |  |  | −29.57 | −29.6 | 29.6
